The values that follow come from EP1501554B1, “BENZOTHIENYL ANALOGUE OF SOMATOSTATINE, SELECTIVE FOR CERTAIN SOMATOSTATIN RECEPTORS” (Advanced Accelerator Applications USA, Inc., priority 2002, dated 2003).

As a reminder, the IC50 is the concentration at which inhibition is half-maximal.

Where two headings read alike, the source gives them in different places. Some results are limits rather than exact numbers.

Assay [1] has as its target T1, hsst 5 (Homo sapiens, UniProt P35346).
T1 construct: expressed in transfected cells
Kind of assay: In vitro binding affinity, transfected cell lines, hsst 5. Conditions: IC50±SEM; applicant's series, with own SS-28 reference.

The target of assay [2] is T2, hsst 2 (Homo sapiens, UniProt P30874).
T2 construct: expressed in transfected cells
T2 sequence (P30874 whole entry): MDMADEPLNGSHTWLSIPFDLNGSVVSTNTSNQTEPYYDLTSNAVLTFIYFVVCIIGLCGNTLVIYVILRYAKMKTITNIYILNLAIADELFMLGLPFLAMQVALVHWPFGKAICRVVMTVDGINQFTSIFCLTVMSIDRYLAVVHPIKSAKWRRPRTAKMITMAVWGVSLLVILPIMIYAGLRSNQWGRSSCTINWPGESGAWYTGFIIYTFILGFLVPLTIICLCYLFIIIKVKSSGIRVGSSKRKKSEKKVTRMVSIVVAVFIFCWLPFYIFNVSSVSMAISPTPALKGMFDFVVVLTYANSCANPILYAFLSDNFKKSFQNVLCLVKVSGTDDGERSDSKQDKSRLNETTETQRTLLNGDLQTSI
Nature of the assay: In vitro binding affinity, transfected cell lines, hsst 2. The following applies: IC50±SEM; applicant's series, with own SS-28 reference.

Assay [3] concerns the target T3, hsst 4 (Homo sapiens, UniProt P31391).
T3 construct: expressed in transfected cells
Nature of the assay: In vitro binding affinity, transfected cell lines, hsst 4. The following applies: IC50±SEM; applicant's series, with own SS-28 reference.

For assay [4], the target named is T4, hsst 3 (Homo sapiens, UniProt P32745).
T4 construct: expressed in transfected cells
T4 sequence (P32745 whole entry): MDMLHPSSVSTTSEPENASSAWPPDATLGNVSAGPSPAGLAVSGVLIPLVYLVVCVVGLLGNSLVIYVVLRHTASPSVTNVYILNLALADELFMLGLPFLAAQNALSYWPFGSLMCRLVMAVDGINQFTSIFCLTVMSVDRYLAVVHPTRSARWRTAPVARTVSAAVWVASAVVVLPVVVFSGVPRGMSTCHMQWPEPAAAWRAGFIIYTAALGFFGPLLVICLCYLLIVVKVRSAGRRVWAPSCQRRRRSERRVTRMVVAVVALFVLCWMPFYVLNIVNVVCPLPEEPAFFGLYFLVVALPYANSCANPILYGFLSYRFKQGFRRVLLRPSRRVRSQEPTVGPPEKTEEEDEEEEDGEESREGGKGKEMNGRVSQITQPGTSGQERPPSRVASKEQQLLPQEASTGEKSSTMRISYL
Nature of the assay: In vitro binding affinity, transfected cell lines, hsst 3. Conditions: IC50±SEM; applicant's series, with own SS-28 reference.

The target in assay [5] is T2, hsst 2. Conditions: IC50±SEM; published series (Reubi et al.), referenced to SS-28; cited from earlier work.
Assay [6] deals with T1, hsst 5. The following applies: IC50±SEM; published series (Reubi et al.), referenced to SS-28; cited from earlier work.
The target in assay [7] is T3, hsst 4. Conditions: IC50±SEM; published series (Reubi et al.), referenced to SS-28; cited from earlier work.
Assay [8] has as its target T4, hsst 3. Conditions: IC50±SEM; published series (Reubi et al.), referenced to SS-28; cited from earlier work.

T1 sequence (P35346 whole entry): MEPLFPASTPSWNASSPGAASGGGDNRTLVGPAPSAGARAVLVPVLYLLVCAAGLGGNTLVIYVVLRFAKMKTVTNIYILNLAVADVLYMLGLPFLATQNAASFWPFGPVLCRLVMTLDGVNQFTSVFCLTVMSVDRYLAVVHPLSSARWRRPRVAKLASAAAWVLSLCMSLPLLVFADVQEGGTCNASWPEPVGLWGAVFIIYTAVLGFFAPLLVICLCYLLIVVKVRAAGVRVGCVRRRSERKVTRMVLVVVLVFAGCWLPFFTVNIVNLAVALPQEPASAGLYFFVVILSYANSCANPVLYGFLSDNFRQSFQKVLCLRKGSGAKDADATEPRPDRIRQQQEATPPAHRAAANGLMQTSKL
T3 sequence (P31391 whole entry): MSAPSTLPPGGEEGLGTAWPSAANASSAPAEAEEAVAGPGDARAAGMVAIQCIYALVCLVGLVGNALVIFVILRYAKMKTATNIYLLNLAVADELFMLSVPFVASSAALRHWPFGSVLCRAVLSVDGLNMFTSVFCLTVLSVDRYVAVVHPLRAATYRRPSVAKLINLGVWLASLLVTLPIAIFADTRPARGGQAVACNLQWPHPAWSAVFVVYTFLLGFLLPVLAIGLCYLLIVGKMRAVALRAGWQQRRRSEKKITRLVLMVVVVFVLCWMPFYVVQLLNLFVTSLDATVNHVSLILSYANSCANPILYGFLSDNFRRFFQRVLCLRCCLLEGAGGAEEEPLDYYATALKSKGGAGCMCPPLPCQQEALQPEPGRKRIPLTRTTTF

Take `C[C@@H](O)[C@H](NC(=O)[C@@H]1CSSC[C@H](NC(=O)[C@H](N)Cc2ccccc2)C(=O)N[C@@H](Cc2csc3ccccc23)C(=O)N[C@H](Cc2c[nH]c3ccccc23)C(=O)N[C@@H](CCCCN)C(=O)N[C@@H]([C@@H](C)O)C(=O)N1)C(=O)O` [compound 13, H-(D)Phe-cyclo[Cys-3-benzothienylalanyl-(D)Trp-Lys-Thr-Cys]-Thr-OH]: the IC50 on hsst 5 [1] is 2.1 nM; on hsst 2 [2], 0.43 nM; on hsst 4 [3], 60 nM; at hsst 3 [4], 27 nM.
Consider `C[C@@H](O)[C@@H]1NC(=O)[C@H](CCCCN)NC(=O)[C@@H](Cc2c[nH]c3ccccc23)NC(=O)[C@H](Cc2cccc3ccccc23)NC(=O)[C@@H](NC(=O)[C@@H](Cc2ccccc2)NC(=O)CN2CCN(CC(=O)O)CCN(CC(=O)O)CCN(CC(=O)O)CC2)CSSC[C@@H](C(=O)N[C@H](CO)[C@@H](C)O)NC1=O` [cpd. 8, Y-DOTA-[1-Nal^3]-OC], for which the IC50 is 10 ± 1.6 nM on hsst 5 [1], 3.3 ± 0.2 nM on hsst 2 [2], above 1000 nM on hsst 4 [3] and 26 ± 1.9 nM at hsst 3 [4].
As for `C[C@@H](O)[C@H](NC(=O)[C@@H]1CSSC[C@H](NC(=O)[C@@H](Cc2ccccc2)NC(=O)CN2CCN(CC(=O)O)CCN(CC(=O)O)CCN(CC(=O)O)CC2)C(=O)N[C@@H](Cc2csc3ccccc23)C(=O)N[C@H](Cc2c[nH]c3ccccc23)C(=O)N[C@@H](CCCCN)C(=O)N[C@@H]([C@@H](C)O)C(=O)N1)C(=O)O` [cpd. 11, ^111In-labelled DOTA-(D)Phe-cyclo[Cys-3-benzothienylalanyl-(D)Trp-Lys-Thr-Cys]Thr-OH, metal not drawn], the IC50 at hsst 5 [1] came out at 4 nM; at hsst 2 [2], 1.1 nM; on hsst 4 [3] it was 110 nM; on hsst 3 [4], 7 nM.
For the molecule Y-DOTA-LAN [cpd. 5], the IC50 at hsst 2 [5] is 23 ± 5 nM; on hsst 5 [6], 16 ± 3.4 nM; on hsst 4 [7], above 1000 nM; at hsst 3 [8], 290 ± 105 nM.
In the case of Y-DOTA-OC [compound 4], the IC50 on hsst 2 [5] was 20 ± 2 nM; at hsst 4 [7] it was above 1000 nM.
With Y-DOTA-TOC [cpd. 6], the IC50 was 11 ± 1.7 nM at hsst 2 [5] and above 10000 nM on hsst 4 [7].
